Measured values published in US10927111B2, “Inhibitors of RAF kinases” (Kinnate Biopharma Inc., priority 2019, dated 2021).

What follows are compounds tested against human RAF1 (Homo sapiens (Human), UniProt P04049) (assay: Protein kinase assay (radiometric 33P-ATP, MEK1 (K97R) substrate)). Conditions: human MEK1 (K97R) substrate 3 micromolar, ATP 10 micromolar, 10-dose IC50 mode; read-out: RAF-1 IC50.
Chain of human RAF1 (P04049 whole entry): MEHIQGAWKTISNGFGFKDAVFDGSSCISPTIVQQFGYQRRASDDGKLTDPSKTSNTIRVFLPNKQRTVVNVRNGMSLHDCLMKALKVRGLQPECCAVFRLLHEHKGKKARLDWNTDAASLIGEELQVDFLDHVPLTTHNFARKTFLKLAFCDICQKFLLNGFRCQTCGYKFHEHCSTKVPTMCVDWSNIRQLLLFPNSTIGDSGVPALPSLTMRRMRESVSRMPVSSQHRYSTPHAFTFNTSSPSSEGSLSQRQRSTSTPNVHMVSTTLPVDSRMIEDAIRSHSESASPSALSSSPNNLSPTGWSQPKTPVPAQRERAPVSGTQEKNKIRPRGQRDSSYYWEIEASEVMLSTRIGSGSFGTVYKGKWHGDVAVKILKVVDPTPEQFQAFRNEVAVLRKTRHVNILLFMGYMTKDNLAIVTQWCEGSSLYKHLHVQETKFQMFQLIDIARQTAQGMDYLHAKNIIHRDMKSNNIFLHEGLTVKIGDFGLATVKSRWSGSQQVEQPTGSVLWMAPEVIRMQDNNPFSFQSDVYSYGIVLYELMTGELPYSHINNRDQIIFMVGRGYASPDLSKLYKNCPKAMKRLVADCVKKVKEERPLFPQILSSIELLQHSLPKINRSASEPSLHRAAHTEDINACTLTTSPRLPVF
Assay type: biochemical
Method: Protein kinase assay: Assay platform was used to measure kinase/inhibitor interactions as described previously (Anastassiadis et al., 2011). In brief, for each reaction, kinase and substrate were mixed in a buffer containing 20 mM HEPES (pH 7.5), 10 mM MgCl2, 1 mM EGTA, 0.02% Brij35, 0.02 mg/mL BSA, 0.1 mM Na3VO4, 2 mM DTT, and 1% DMSO. All compounds were solubilized in DMSO. Compounds were then added to each reaction mixture via acoustic dispense using an ECHO 550 nanoliter dispenser. For human RAF1 testing, human MEK1 (K97R) was used as a substrate at a concentration of 3 micromolar, with a final ATP concentration of 10 micromolar. For human BRAF testing, human MEK1 (K97R) was used as a substrate at 1 micromolar concentration, with a final ATP concentration of 25 micromolar. […] After a 20-min incubation, ATP (Sigma-Aldrich, St. Louis, Mo. 63178) and [g33P] ATP (specific activity 10 microCi/microliter) purchased at PerkinElmer (Boston, Mass., 02118 Cat #BLU 003H250UC) were added at a final total concentration of 10 mM. Reactions were carried out at room temperature for 2 hr and spotted onto P81 ionexchange cellulose chromatography paper (Reaction Biology). Filter paper was washed in 0.75% phosphoric acid to remove unincorporated ATP. The percent remaining kinase activity relative to a vehicle-containing (DMSO) kinase reaction was calculated for each kinase/inhibitor pair. IC50 values were calculated using Prism 5 (GraphPad).
For `CNc1ncc2cc(-c3cc(NC(=O)c4ccnc(C(F)(F)F)c4Cl)ccc3C)c(C)nc2n1` [Example 33, 3-chloro-N-(4-methyl-3-(7-methyl-2-(methylamino)pyrido[2,3-d]pyrimidin-6-yl)phenyl)-2-(trifluoromethyl)isonicotinamide], the IC50 was ≤ 10 nM.
With `CNc1ncc2cc(-c3cc(NC(=O)c4cc(C(F)(F)F)ccn4)ccc3C)c(C)nc2n1` [Example 27] the IC50 was ≤ 10 nM.
For `CNc1ncc2cc(-c3cc(NC(=O)N4CC[C@H](OC(F)(F)F)C4)ccc3C)c(C#N)nc2n1` [Example 79], the IC50 was ≤ 10 nM.
For `CNc1ncc2cc(-c3cc(NC(=O)c4ccnc(C(F)(F)F)c4)ccc3C)c(C(F)(F)F)nc2n1` [Example 73, N-[4-methyl-3-[2-(methylamino)-7-(trifluoromethyl)pyrido[2,3-d]pyrimidin-6-yl]phenyl]-2-(trifluoromethyl)pyridine-4-carboxamide], the IC50 was ≤ 10 nM.
`CNc1ncc2cc(-c3cc(NC(=O)N4CC[C@@H](CC(F)(F)F)C4)ccc3C)c(C#N)nc2n1` [Example 77, (3S)—N-[3-[7-cyano-2-(methylamino)pyrido[2,3-d]pyrimidin-6-yl]-4-methylphenyl]-3-(2,2,2-trifluoroethyl)pyrrolidine-1-carboxamide] was tested, and the IC50 was ≤ 10 nM.
For `CNc1ncc2cc(-c3cc(NC(=O)N4CCO[C@@H](C(F)(F)F)C4)c(F)cc3C)cnc2n1` [Example 62, (2R)-N-[2-fluoro-4-methyl-5-[2-(methylamino)pyrido[2,3-d]pyrimidin-6-yl]phenyl]-2-(trifluoromethyl)morpholine-4-carboxamide], the IC50 was ≤ 10 nM.
For `CNc1ncc2cc(-c3cc(NC(=O)c4ccnc(C(F)(F)F)c4C)ccc3C)c(C)nc2n1` [Example 41, 3-methyl-N-(4-methyl-3-(7-methyl-2-(methylamino)pyrido[2,3-d]pyrimidin-6-yl)phenyl)-2-(trifluoromethyl)isonicotinamide], the IC50 was ≤ 10 nM.
With `CNc1ncc2cc(-c3cc(NC(=O)N4CC=C(C(F)(F)F)C4)ccc3C)c(C)nc2n1` [Example 16, N-(4-methyl-3-(7-methyl-2-(methylamino)pyrido[2,3-d]pyrimidin-6-yl)phenyl)-3-(trifluoromethyl)-2,5-dihydro-1H-pyrrole-1-carboxamide] the IC50 was ≤ 10 nM.
For `CNc1ncc2cc(-c3cc(NC(=O)c4cc[n+]([O-])c(C(F)(F)F)c4)ccc3C)c(C)nc2n1` [Example 76, 4-([4-methyl-3-[7-methyl-2-(methylamino)pyrido[2,3-d]pyrimidin-6-yl]phenyl]carbamoyl)-2-(trifluoromethyl)pyridin-1-ium-1-olate], the IC50 was ≤ 10 nM.
With `Cc1ccc(NC(=O)c2ccnc(C(F)(F)F)c2)cc1-c1cc2cnc(NCCN3CCCC3)nc2nc1C` [Example 39, N-(4-methyl-3-(7-methyl-2-((2-(pyrrolidin-1-yl)ethyl)amino)pyrido[2,3-d]pyrimidin-6-yl)phenyl)-2-(trifluoromethyl)isonicotinamide] the IC50 was ≤ 10 nM.
With `CNc1ncc2cc(-c3cc(NC(=O)c4ccnc(C(F)(F)F)c4)cnc3C)cnc2n1` [Example 46, N-(6-methyl-5-(2-(methylamino)pyrido[2,3-d]pyrimidin-6-yl)pyridin-3-yl)-2-(trifluoromethyl)isonicotinamide] the IC50 was ≤ 10 nM.
`CNc1ncc2cc(-c3cc(NC(=O)c4cncc(C(F)(F)F)c4)ccc3C)c(C)nc2n1` [Example 32, N-(4-methyl-3-(7-methyl-2-(methylamino)pyrido[2,3-d]pyrimidin-6-yl)phenyl)-5-(trifluoromethyl)nicotinamide] was tested, and the IC50 was ≤ 10 nM.
With `CNc1ncc2cc(-c3cc(NC(=O)c4ccnc(C(C)(F)F)c4)ccc3C)c(C)nc2n1` [Example 52, 2-(1,1-difluoroethyl)-N-[4-methyl-3-[7-methyl-2-(methylamino)pyrido[2,3-d]pyrimidin-6-yl]phenyl]pyridine-4-carboxamide] the IC50 was ≤ 10 nM.
With `CNc1ncc2cc(-c3cc(NC(=O)c4cccc(C(F)(F)F)c4)cnc3C)c(C)nc2n1` [Example 44, N-(6-methyl-5-(7-methyl-2-(methylamino)pyrido[2,3-d]pyrimidin-6-yl)pyridin-3-yl)-3-(trifluoromethyl)benzamide] the IC50 was ≤ 10 nM.
In the case of `CNc1ncc2cc(-c3cc(NC(=O)N4CC[C@H](OC(F)(F)F)C4)c(F)cc3C)cnc2n1` [Example 59], the IC50 is reported as ≤ 10 nM.
In the case of `CNc1ncc2cc(-c3cc(NC(=O)N4CCO[C@H](C(F)(F)F)C4)ccc3C)c(C)nc2n1` [Example 13], the IC50 is reported as ≤ 10 nM.
For `CNc1ncc2cc(-c3cc(NC(=O)c4ccnc(C(F)(F)F)c4)ccc3C)c(OCCO)nc2n1` [Example 70, N-[3-[7-(2-hydroxyethoxy)-2-(methylamino)pyrido[2,3-d]pyrimidin-6-yl]-4-methylphenyl]-2-(trifluoromethyl)pyridine-4-carboxamide], the IC50 was ≤ 10 nM.
`CCc1nc2nc(NC)ncc2cc1-c1cc(NC(=O)c2ccnc(C(F)(F)F)c2)ccc1C` [Example 36, N-(3-(7-ethyl-2-(methylamino)pyrido[2,3-d]pyrimidin-6-yl)-4-methylphenyl)-2-(trifluoromethyl)isonicotinamide] was tested, and the IC50 was ≤ 10 nM.
With `C=Cc1nc2nc(NC)ncc2cc1-c1cc(NC(=O)c2ccnc(C(F)(F)F)c2)ccc1C` [Example 65, N-[3-[7-ethenyl-2-(methylamino)pyrido[2,3-d]pyrimidin-6-yl]-4-methylphenyl]-2-(trifluoromethyl)pyridine-4-carboxamide] the IC50 was ≤ 10 nM.
In the case of `CNc1ncc2cc(-c3cc(NC(=O)c4cccc(C(F)(F)F)c4)cnc3C)cnc2n1` [Example 45, N-(6-methyl-5-(2-(methylamino)pyrido[2,3-d]pyrimidin-6-yl)pyridin-3-yl)-3-(trifluoromethyl)benzamide], the IC50 is reported as ≤ 10 nM.
In the case of `Cc1ccc(NC(=O)c2ccnc(C(F)(F)F)c2)cc1-c1cc2cnc(NCCN3CCOCC3)nc2nc1C` [Example 38, N-(4-methyl-3-(7-methyl-2-((2-morpholinoethyl)amino)pyrido[2,3-d]pyrimidin-6-yl)phenyl)-2-(trifluoromethyl)isonicotinamide], the IC50 is reported as ≤ 10 nM.
In the case of `CCNc1ncc2cc(-c3cc(NC(=O)c4ccnc(C(F)(F)F)c4)ccc3C)c(C)nc2n1` [Example 35, N-(3-(2-(ethylamino)-7-methylpyrido[2,3-d]pyrimidin-6-yl)-4-methylphenyl)-2-(trifluoromethyl)isonicotinamide], the IC50 is reported as ≤ 10 nM.

Same assay, conditions: read-out: RAF-1 IC50
With `CNc1ncc2cc(-c3cc(NC(=O)N4CCC(C(F)(F)F)C4)ccc3C)cnc2n1` (stereo in doubt) [Example 55, (3S)—N-[4-methyl-3-[2-(methylamino)pyrido[2,3-d]pyrimidin-6-yl]phenyl]-3-(trifluoromethyl)pyrrolidine-1-carboxamide] the IC50 was ≤ 10 nM.
Work on `CNc1ncc2cc(-c3cc(NC(=O)N4CC[C@@H](SC(F)(F)F)C4)ccc3C)c(C)nc2n1` [Example 4] yielded an IC50 of 10 to 100 nM.
`CNc1ncc2cc(-c3cc(NC(=O)N4CC[C@H](SC(F)(F)F)C4)ccc3C)c(C)nc2n1` [Example 5] was tested, and the IC50 was 10 to 100 nM.
For `[2H]C([2H])([2H])Nc1ncc2cc(-c3cc(NC(=O)c4ccnc(C(F)(F)F)c4)ccc3C)c(C([2H])([2H])[2H])nc2n1` [Example 75, N-(4-methyl-3-(7-(methyl-d3)-2-((methyl-d3)amino)pyrido[2,3-d]pyrimidin-6-yl)phenyl)-2-(trifluoromethyl)isonicotinamide], the IC50 was ≤ 10 nM.
With `CNc1ncc2cc(-c3cc(NC(=O)N4CCO[C@H](CC(F)(F)F)C4)c(F)cc3C)c(C)nc2n1` [Example 25, (R)-N-(2-fluoro-4-methyl-5-(7-methyl-2-(methylamino)pyrido[2,3-d]pyrimidin-6-yl)phenyl)-2-(2,2,2-trifluoroethyl)morpholine-4-carboxamide] the IC50 was ≤ 10 nM.
In the case of `CNc1ncc2cc(-c3cc(NC(=O)N4CCO[C@@H](CC(F)(F)F)C4)c(F)cc3C)c(C)nc2n1` [Example 26, (S)-N-(2-fluoro-4-methyl-5-(7-methyl-2-(methylamino)pyrido[2,3-d]pyrimidin-6-yl)phenyl)-2-(2,2,2-trifluoroethyl)morpholine-4-carboxamide], the IC50 is reported as ≤ 10 nM.
In the case of `[2H]C([2H])([2H])Oc1nc2nc(NC)ncc2cc1-c1cc(NC(=O)c2ccnc(C(F)(F)F)c2)ccc1C` [Example 71, N-(3-(7-(methoxy-d3)-2-(methylamino)pyrido[2,3-d]pyrimidin-6-yl)-4-methylphenyl)-2-(trifluoromethyl)isonicotinamide], the IC50 is reported as ≤ 10 nM.
In the case of `[2H]C([2H])([2H])Nc1ncc2cc(-c3cc(NC(=O)c4ccnc(C(F)(F)F)c4)ccc3C)c(C)nc2n1` [Example 43, N-(4-methyl-3-(7-methyl-2-((trideuteromethyl)amino)pyrido[2,3-d]pyrimidin-6-yl)phenyl)-2-(trifluoromethyl)isonicotinamide], the IC50 is reported as ≤ 10 nM.
With `CNc1ncc2cc(-c3cc(NC(=O)c4ccnc(C(F)(F)F)c4)ccc3C)c(OC)nc2n1` [Example 68, N-[3-[7-methoxy-2-(methylamino)pyrido[2,3-d]pyrimidin-6-yl]-4-methylphenyl]-2-(trifluoromethyl)pyridine-4-carboxamide] the IC50 was ≤ 10 nM.
In the case of `[2H]C([2H])([2H])c1nc2nc(NC)ncc2cc1-c1cc(NC(=O)c2ccnc(C(F)(F)F)c2)ccc1C` [Example 74, N-(4-methyl-3-(7-(methyl-d3)-2-(methylamino)pyrido[2,3-d]pyrimidin-6-yl)phenyl)-2-(trifluoromethyl)isonicotinamide], the IC50 is reported as ≤ 10 nM.
